Measured values reported in patent US8519136B2, “Aminopyridine derivatives having aurora a selective inhibitory action” (MSD K.K., priority 2008, dated 2013).
pIC50: −log10 of the molar value. Counter-ions that a name gives are not always drawn.

Experiments:
[1] = test system: Human cervical cancer cells (HeLa S3); assay: Effect by combined use of drugs in cells (with docetaxel), WST-8 method; assay type: cell-based; conditions: HeLa S3, three days; for inhibition at 0.3 µM: compound 300 nM alone
Experimental: Fetal calf serum (FCS) was purchased from Moregate Biotech, DMEM medium from Invitrogen Corp., docetaxel (tradename: Taxere) from Sigma-Aldrich, Inc., and WST-8 from Kishida Chemical Co., Ltd.
Human cervical cancer cells (HeLa S3) were obtained from the American Type Culture Collection (ATCC).
Cells were suspended in a DMEM medium containing 10% FCS, and the cell suspension was dispensed to two 96-well plastic plates at a rate of 750 cells/100 microliters per well. The plates were incubated overnight in 5% CO2-95% air at 37° C. A drug was subjected to graded dilution in dimethylsulfoxide and further diluted with DMSO or with a DMEM medium containing 10% FCS and also containing 0.6 nM docetaxel. Then, the dilutions were each dispensed to one of the plates on which cells had been disseminated, at a rate of 100 microliters per well. The final concentration of docetaxel at this stage was 0.3 nM. Also, the concentrations in the case of sole administration of the compound according to the invention were 0.003, 0.01, 0.03, 0.1, 0.3, 1, 3 and 10 μM. The plates were incubated for further three days in 5% CO2-95% air at 37° C. Cell growth after incubation was measured by the WST-8 method (H. Tominaga, et al., Anal. Commun., 36, 47-50 (1999)). Here, the WST-8 method refers to a method in which 20 microliters of a WST-8 reagent solution is added to each well, incubation is conducted at 37° C. for 60 minutes, the plate is stirred, and the amount of formazan produced is measured by a colorimetric method to determine the inhibitory rate of the drug. The growth inhibitory effects of docetaxel and of the compound according to the invention were determined, with the value obtained in sole treatment of DMSO being defined as 0%.

[2] = target: T1, His-tagged human Aurora A (Homo sapiens, UniProt O14965); assay: Aurora A inhibitory activity (IMAP fluorescence polarization); assay type: biochemical; conditions: 20 μM ATP, 30° C., 120 minutes
T1 construct: His (N); made in house; host or cells: Escherichia coli BL21-CodonPlus(DE3)-RIL
T1 sequence (O14965 1-403): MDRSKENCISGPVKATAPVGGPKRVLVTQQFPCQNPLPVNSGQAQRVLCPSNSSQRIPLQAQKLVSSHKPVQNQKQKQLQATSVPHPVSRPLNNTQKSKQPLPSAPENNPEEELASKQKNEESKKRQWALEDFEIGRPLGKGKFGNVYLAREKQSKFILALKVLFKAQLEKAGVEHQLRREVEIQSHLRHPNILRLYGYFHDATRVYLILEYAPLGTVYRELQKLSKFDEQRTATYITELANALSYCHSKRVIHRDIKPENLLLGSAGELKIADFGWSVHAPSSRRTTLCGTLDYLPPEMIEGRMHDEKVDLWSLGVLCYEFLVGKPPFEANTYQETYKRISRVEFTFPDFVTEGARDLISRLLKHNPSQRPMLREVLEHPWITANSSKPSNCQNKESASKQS
Excerpt: cDNA of N-terminal His-tagged human Aurora A was integrated into an expression vector, which was then highly expressed in Escherichia coli BL21-CodonPlus(DE3)-RIL cells. The Escherichia coli was harvested and lysed, and then the His-tagged human Aurora A protein was applied onto a nickel chelate column and eluted from the column with imidazole. The active fractions were desalted with a desalting column to give a purified enzyme.
For measurement of the activity of Aurora A, the substrate used was a synthetic peptide (5-FAM (5-carboxyfluorescein)-γ-aminobutyric acid-Ala-Leu-Arg-Arg-Ala-Ser-Leu-Gly-NH2) (SEQ.ID.NO.: 1), which was purchased from Toray Research Center, Inc.
For the phosphorylation reaction, the method by Upstate, Inc. [Kinase Profiler™ Assay Protocols] was referred to, and phosphorylation of the substrate was detected using IMAP® technology (Molecular Devices, Co. Ltd.) (Gaudet E W. et. al, J. Biomol. Screen, 8, 164-175 (2003)). Concretely, the phosphorylation reaction and the detection were carried out as follows:
The phosphorylation reaction was conducted using 384 well plate, and the reaction volume was 10 μl/well. The reaction buffer is comprised of 50 mM Tris-chloride buffer (pH 7.4), 15 mM magnesium acetate, and 0.2 mM ethylenediamine-N,N,N′,N′-tetraacetic acid (EDTA). Thereto, the purified Aurora A protein, 100 nM of the peptide substrate, and 20 μM of adenosine 5′-triphosphate (ATP) were added, and then the reaction was carried out at 30° C. for 120 minutes.
Thereafter, in order to terminate and detect the reaction, 30 μl of the IMAP (registered trademark) binding reagent (IMAP Progressive Binding Reagent, R7284) that had been diluted (1:400) in the 1×IMAP binding buffer A (IMAP Progressive Binding Buffer A, 5× stock, R7282) was added to each well. The solution stood still for 60 minutes in the dark, and then fluorescence polarization was measured using a high-end microplate reader (excitation wavelength: 485 nm; emission wavelength: 520 nm).
The compound to be tested was added to the reaction system such that a dilution series of the compound in dimethylsulfoxide (DMSO) was prepared, and then 0.5 μL of this solution was added for the testing to each well. Each control well was provided by adding 0.5 μL of DMSO to the well in place of the DMSO solution containing the compound to be tested.

[3] = Homo sapiens, HeLa S3, 72 h, read-out: Cell growth inhibitory effect by sole administration of the compound of Example (%)
[4] = compound 300 nM + docetaxel 0.3 nM

Row | pIC50 [2] | Structure (SMILES) | inhibition at 0.3 µM [1, 3] [%] | Cell growth inhibitory effect by combined administration of docetaxel and the compound of Example (%) [1, 4] [%] | inhibition at 0.1 µM ([1]; Homo sapiens, HeLa S3, 72 h, compound 100 nM alone, read-out: Cell growth inhibitory effect by sole administration of the compound of Example (%)) [%] | Cell growth inhibitory effect by combined administration of docetaxel and the compound of Example (%) ([1]; compound 100 nM + docetaxel 0.3 nM)
1 | 9.40 | O=c1[nH]nc(C2(Cc3cccc(Nc4cc[nH]n4)n3)CCN(S(=O)(=O)c3ccccc3C(F)(F)F)CC2)o1 [Example 14, 5-(4-((6-(1H-pyrazol-3-ylamino)pyridin-2-yl)methyl)-1-((2-(trifluoromethyl)phenyl)sulfonyl)piperidin-4-yl)-1,3,4-oxadiazol-2(3H)-one trifluoroacetate] | 3.3 | 80.7 | – | –
2 | 9.04 | Cl.O=C(c1cccc(Cl)c1F)N1CCC(O)(Cc2cccc(Nc3cc[nH]n3)n2)CC1 [Example 2, 1-(3-chloro-2-fluorobenzoyl)-4-((6-(1H-pyrazol-3-ylamino)pyridin-2-yl)methyl)piperidin-4-ol hydrochloride] | 23.9 | 90.2 | – | –

Row | Structure (SMILES) | pIC50 [2] | inhibition at 0.3 µM [1, 3] [%] | Cell growth inhibitory effect by combined administration of docetaxel and the compound of Example (%) [1, 4] [%] | inhibition at 0.1 µM ([1]; Homo sapiens, HeLa S3, 72 h, compound 100 nM alone, read-out: Cell growth inhibitory effect by sole administration of the compound of Example (%)) [%] | Cell growth inhibitory effect by combined administration of docetaxel and the compound of Example (%) ([1]; compound 100 nM + docetaxel 0.3 nM)
3 | O=c1[nH]nc(C2(Cc3cccc(Nc4cc[nH]n4)n3)CCN(C(c3cccc(C(F)(F)F)c3)C(F)(F)F)CC2)o1 (stereo not drawn) [Example 19, 5-(4-((6-(1H-pyrazol-3-ylamino)pyridin-2-yl)methyl)-1-(2,2,2-trifluoro-1-(3-(trifluoromethyl)phenyl)ethyl)piperidin-4-yl)-1,3,4-oxadiazol-2(3H)-one trifluoroacetate] | 8.90 | – | – | 7.6 | 86.0
